From patent US9974778B2, “Substituted pyridinones as MGAT2 inhibitors” (BRISTOL-MYERS SQUIBB COMPANY, priority 2014, dated 2018) come the findings set out here.

SMILES strings stand for the structures.

T1 sequence (Q3SYC2 whole entry): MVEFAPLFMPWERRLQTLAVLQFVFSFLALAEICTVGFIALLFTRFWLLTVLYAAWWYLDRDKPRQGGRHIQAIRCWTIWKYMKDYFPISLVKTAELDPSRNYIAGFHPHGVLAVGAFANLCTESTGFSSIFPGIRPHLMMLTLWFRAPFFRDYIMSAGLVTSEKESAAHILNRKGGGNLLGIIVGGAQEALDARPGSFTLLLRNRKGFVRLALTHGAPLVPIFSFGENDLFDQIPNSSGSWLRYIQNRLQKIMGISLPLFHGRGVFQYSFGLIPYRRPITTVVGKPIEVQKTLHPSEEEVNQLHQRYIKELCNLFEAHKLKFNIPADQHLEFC

One assay addresses T1, Human MGAT-2 (Homo sapiens, UniProt Q3SYC2).
T1 construct: made in house; host or cells: Sf9 cells (membrane preparation)
The assay can be described thus: MGAT LCMS Assay. It is filed as biochemical.
Conditions: not given
How it is done:
Assay plates were run through a fully automated robotics system and shaken for 5 seconds every minute for a total 10 minutes. The reactions were then quenched with 120 μL of ice cold methanol containing 1 μg/mL 1,2-distearoyl-rac-glycerol as the internal standard. Plates were shaken for 2 minutes and spun down to remove protein precipitation. After the spin, samples were transferred to LC/MS compatible PCR plates. For LC/MS analysis, a ThermoFisher Surveyor pump, utilizing a Waters […]® C8, 50×2.1 mm column, was used for the chromatography of enzyme products. The buffer system consists of 0.1% formic acid in water with a mobile phase consisting 0.1% formic acid in methanol. […] The first 0.5 minutes of each injection was diverted to waste to eliminate the presence of Phosphate buffer in the enzymatic reaction. The column was run at 0.6 mL/min and a temperature of 65° C. Mass spectrometry analysis of the samples was performed on a ThermoFisher Quantum Triple quad utilizing APCI (+) as the mode of ionization. […] The ratio of Diolein to internal standard (Peak Area Ratio) is utilized to calculate IC50 values.
The molecule `CCc1ccc(-c2cc(-c3ccc(OCCCCCC(F)(F)F)cc3C(F)(F)F)[nH]c(=O)c2-c2nn[nH]n2)s1` [Example 151, 4-(5-Ethylthiophen-2-yl)-3-(2H-tetrazol-5-yl)-6-(4-((6,6,6-trifluorohexyl)oxy)-2-(trifluoromethyl)phenyl)pyridin-2(1H)-one] yielded an IC50 of 0.3 nM.

The assay is the same for the next values; noted with them: human MGAT2 membranes expressed in Sf9 cells; 100 μM 2-oleoylglycerol, 15 μM oleoyl-coenzyme A; read-out: h-MGAT LCMS IC50.
With `Cc1ccc(-c2cc(-c3ccc(OCCCCCC(F)(F)F)cc3C(F)(F)F)[nH]c(=O)c2-c2nnn[nH]2)cc1` [Example 134, 3-(2H-Tetrazol-5-yl)-4-(p-tolyl)-6-(4-((6,6,6-trifluorohexyl)oxy)-2-(trifluoromethyl)phenyl)pyridin-2(1H)-one], the half-maximal inhibitory concentration (IC50) is 3 nM.
Consider `O=c1[nH]c(-c2ccc(OCCCCCC(F)(F)F)cc2)cc(-c2nn(CC3CC3)cc2Cl)c1-n1nn[nH]c1=O` [Example 158, 4-[4-Chloro-1-(cyclopropylmethyl)-1H-pyrazol-3-yl]-3-(5-oxo-4,5-dihydro-1H-1,2,3,4-tetrazol-1-yl)-6-{4-[(6,6,6-trifluorohexyl)oxy]phenyl}-1,2-dihydropyridin-2-one], for which the IC50 came to 6 nM.
`O=c1[nH]c(-c2ccc(OCCCCCC(F)(F)F)cc2)cc(-c2ccc(OC(F)F)cc2)c1-n1nn[nH]c1=O` [Example 162, 4-[4-(Difluoromethoxy)phenyl]-3-(5-oxo-4,5-dihydro-1H-1,2,3,4-tetrazol-1-yl)-6-{4-[(6,6,6-trifluorohexyl)oxy]phenyl}-1,2-dihydropyridin-2-one]: the half-maximal inhibitory concentration (IC50) was 1970 nM.
Regarding `CCOc1ccc(NC(=O)c2c(-c3cnc(N(C)C)s3)cc(C3(O)CCCCC3)[nH]c2=O)cc1` [Example 9, 4-(2-(Dimethylamino)thiazol-5-yl)-N-(4-ethoxyphenyl)-6-(1-hydroxycyclohexyl)-2-oxo-1,2-dihydropyridine-3-carboxamide], the IC50 was 293 nM.
Turning to `O=c1[nH]c(-c2ccc(OCCCC(F)(F)F)cc2F)cc(-c2ccc(OC(F)F)cc2)c1-c1nn[nH]n1` [Example 113, 4-(4-(Difluoromethoxy)phenyl)-6-(2-fluoro-4-(4,4,4-trifluorobutoxy)phenyl)-3-(2H-tetrazol-5-yl)pyridin-2(1H)-one], the IC50 is 7 nM.
The same measure, in the same setting: then `CCOc1ccc(NC(=O)c2c(-c3ccc(C)cc3)cc(C3(F)CCCC3)[nH]c2=O)cc1` [Example 54, N-(4-Ethoxyphenyl)-6-(1-fluorocyclopentyl)-2-oxo-4-(p-tolyl)-1,2-dihydropyridinc-3-carboxamide], with 127 nM.
Still for that read-out and setting: for `CCc1ccc(-c2cc(-c3ccc(OCCCCCC(F)(F)F)cc3)[nH]c(=O)c2C(=O)NS(=O)(=O)C2CC2)s1` [Example 84, N-(Cyclopropylsulfonyl)-4-(5-ethylthiophen-2-yl)-2-oxo-6-(4-((6,6,6-trifluorohexyl)oxy)phenyl)-1,2-dihydropyridine-3-carboxamide] the value was 1 nM; for `CCn1ccc(-c2cc(-c3ccc(OCCCC(F)(F)F)cc3F)[nH]c(=O)c2C(=O)Nc2ccc(OC(F)(F)F)cc2)n1` [Example 120, 4-(1-Ethyl-1H-pyrazol-3-yl)-6-(2-fluoro-4-(4,4,4-trifluorobutoxy)phenyl)-2-oxo-N-(4-(trifluoromethoxy)phenyl)-1,2-dihydropyridine-3-carboxamide], 45 nM.
With `O=C(NS(=O)(=O)C1CC1)c1c(-c2ccc(CC3CC3)cc2)cc(-c2ccc(OCCCCCC(F)(F)F)cc2)[nH]c1=O` [Example 63, 4-(4-(Cyclopropylmethyl)phenyl)-N-(cyclopropylsulfonyl)-2-oxo-6-(4-((6,6,6-trifluorohexyl)oxy)phenyl)-1,2-dihydropyridine-3-carboxamide], the IC50 came to 17 nM.
Regarding `CCOc1ccc(NC(=O)c2c(-c3ccc(C)cc3)c(C)c(C3CCCCC3)[nH]c2=O)cc1` [Example 25, 6-Cyclohexyl-N-(4-ethoxyphenyl)-5-methyl-2-oxo-4-(p-tolyl)-1,2-dihydropyridine-3-carboxamide], the IC50 was found to be 72 nM.

A word on the IC50: it is the midpoint of a concentration-inhibition curve.
